According to patent US6528245B2, “Bone marrow cells as a source of neurons for brain and spinal cord repair” (University of South Florida, priority 1998, dated 2003):

Assays:
MSCs = conditions: 1 μg/ml, alone; cited from earlier work
human BMSC = experiment: In vitro differentiation of human BMSC; immunocytochemistry and Western blot; format: cell-based; conditions: replated in medium containing the mitogen
From the text: To briefly summarize, BMSC were separated from whole bone marrow of the mouse, calf and humans.
BMSC were isolated from residual bone marrow material (bone chips with adherent stromal cells, fatty tissue and debris) which was retained on the nylon mesh filters routinely used in filtering freshly procured human marrow to be used for bone marrow transplantation. The filtrate contains the bulk of the bone marrow hematopoietic elements that is then processed for human bone marrow replacement. We use the filters that were usually discarded. The filters were back washed five times with PBS. The PBS solution was centrifuged to deposit the heavier bone chips. The supernatant was resuspended in culture medium and plated in tissue culture flasks (as in Example 1). BMSC were separated by their adherence to plastic culture flasks, whereas the smaller hematopoietic stem cells remained suspended in the media and were removed when the culture media was replaced with fresh media. […]
After 7 days, expressions of neuronal markers (Nestin, Neuron Specific Nuclear protein or NeuN and GFAP) and a bone marrow stromal cell marker (fibronectin) were analyzed by Western blot analysis and immunocytochemistry (FIG. 6). […]

Row | Molecule | differentiation of MSCs into myoblasts and myotubes (MSCs) | proliferation and differentiation of human bone marrow cells (human BMSC)
1 | C[C@@H]1[C@H](O)[C@@H](C)/C=C/C=C/C=C/C=C/C=C/C=C/C=C/[C@H](O[C@@H]2O[C@H](C)[C@@H](O)[C@H](N)[C@@H]2O)C[C@@H]2O[C@](O)(C[C@@H](O)C[C@@H](O)[C@H](O)CC[C@@H](O)C[C@@H](O)CC(=O)O[C@H]1C)C[C@H](O)[C@H]2C(=O)O [amphotericin B] | differentiate into myoblasts and myotubes | –
2 | EGF: epidermal growth factor, mitogen used at 10 ng/ml (NSDSECPLSHDGYCLHDGVCMYIEALDKYACNCVVGYIGERCQYRDLKWWELR; Epidermal growth factor; UniProt P01133 971-1023, looked up) | – | proliferation of cells, without significant induction of differentiation
